# Key:
# SARS-CoV-2 3CLpro = SARS-CoV-2 3CLpro (Severe acute respiratory syndrome coronavirus 2, UniProt P0DTD1); assay type: biochemical; details: read-out: 3CLpro IC50
# 3CLpro = 3CLpro (Severe acute respiratory syndrome coronavirus 2, UniProt P0DTD1); assay type: biochemical, SARS-CoV-2
# COVID-19 = COVID-19 patients, ref Beigel et al., 2020, cited from earlier work
# SARS-CoV-2 = assay: microbe, parasite or virus in culture; assay type: cell-based; details: Severe acute respiratory syndrome coronavirus 2
smiles,measurement,setting,value
COC(=O)c1c(C)[nH]c(C(=O)COn2nnc3ccc(S(=O)(=O)N(C)C)cc32)c1C [Compound 12],IC50,SARS-CoV-2 3CLpro,1.32 µM
same,IC50,3CLpro; read-out: FRET IC50,0.35 µM
COc1ccc(-c2nc(NC(=O)c3ccc(C)c(F)c3)n[nH]2)cc1OC [Compound 30],FRET IC50,3CLpro,high fluorescent signals
CCC(CC)COC(=O)[C@H](C)N[P@](=O)(OC[C@H]1O[C@@](C#N)(c2ccc3c(N)ncnn23)[C@H](O)[C@@H]1O)Oc1ccccc1 [Remdesivir],recovery,COVID-19; reduced from 15 days,11 days
same,effect on mortality,COVID-19,no significant effect
same,EC50,SARS-CoV-2,1.84 µM
